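Growth conditions: 96-well plates. Treatment: test compound, 48 hours, 5 concentrations. Analysis: linear interpolation between bracketing concentrations; unreached endpoints set to highest concentration. TGI denotes the concentration required for complete inhibition of growth.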
Tests used:
Assay in all cases: NCI-60 cell line screen, 48 h
HCT-15 colon = test system: HCT-15 colon
MALME-3M melanoma = test system: MALME-3M melanoma
SK-MEL-5 melanoma = test system: SK-MEL-5 melanoma
CAKI-1 renal = test system: CAKI-1 renal
HT29 colon = test system: HT29 colon
IGROV1 ovarian = test system: IGROV1 ovarian
SK-MEL-28 melanoma = test system: SK-MEL-28 melanoma
HOP-62 NSCLC = test system: HOP-62 NSCLC
SW-620 colon = test system: SW-620 colon
LOX IMVI melanoma = test system: LOX IMVI melanoma
HL-60(TB) leukemia = test system: HL-60(TB) leukemia
HCC-2998 colon = test system: HCC-2998 colon
MOLT-4 leukemia = test system: MOLT-4 leukemia
NCI-H226 lung = test system: NCI-H226 lung
SF-268 CNS = test system: SF-268 CNS
UACC-257 melanoma = test system: UACC-257 melanoma
XF 498 CNS = test system: XF 498 CNS
HCT-116 colon = test system: HCT-116 colon
U251 CNS = test system: U251 CNS
SK-OV-3 ovarian = test system: SK-OV-3 ovarian
786-0 renal = test system: 786-0 renal
K-562 leukemia = test system: K-562 leukemia
SNB-75 CNS = test system: SNB-75 CNS
SF-539 CNS = test system: SF-539 CNS
RXF 393 renal = test system: RXF 393 renal
KM12 colon = test system: KM12 colon
NCI-H460 lung = test system: NCI-H460 lung
SN12C renal = test system: SN12C renal
RPMI-8226 leukemia = test system: RPMI-8226 leukemia
COLO 205 colon = test system: COLO 205 colon
SF-295 CNS = test system: SF-295 CNS
CCRF-CEM leukemia = test system: CCRF-CEM leukemia
DLD-1 colon = test system: DLD-1 colon
SK-MEL-2 melanoma = test system: SK-MEL-2 melanoma
A549 NSCLC = test system: A549 NSCLC
UO-31 renal = test system: UO-31 renal
TK-10 renal = test system: TK-10 renal
SNB-78 CNS = test system: SNB-78 CNS
A498 renal = test system: A498 renal
KM20L2 colon = test system: KM20L2 colon
DMS 273 small cell lung = test system: DMS 273 small cell lung
NCI-H23 lung = test system: NCI-H23 lung
ACHN renal = test system: ACHN renal
SNB-19 CNS = test system: SNB-19 CNS
LXFL 529 NSCLC = test system: LXFL 529 NSCLC
UACC-62 melanoma = test system: UACC-62 melanoma
DMS 114 small cell lung = test system: DMS 114 small cell lung
EKVX NSCLC = test system: EKVX NSCLC
OVCAR-5 ovarian = test system: OVCAR-5 ovarian
OVCAR-3 ovarian = test system: OVCAR-3 ovarian
M14 melanoma = test system: M14 melanoma
NCI-H522 lung = test system: NCI-H522 lung
OVCAR-8 ovarian = test system: OVCAR-8 ovarian
HOP-92 NSCLC = test system: HOP-92 NSCLC
M19-MEL melanoma = test system: M19-MEL melanoma
RXF-631 renal = test system: RXF-631 renal
OVCAR-4 ovarian = test system: OVCAR-4 ovarian
HOP-18 NSCLC = test system: HOP-18 NSCLC
SR leukemia = test system: SR leukemia

Measured: TGI

Cc1cc(N(CCC#N)S(=O)(=O)c2ccccc2)ccc1/C=C1N=C(/C=C/c2ccccc2)OC\1=O
not listed: HOP-92 NSCLC | M19-MEL melanoma | RXF-631 renal | OVCAR-4 ovarian | HOP-18 NSCLC | SR leukemia
> 100 µM: all other assays above

CC(C)(C)OC(=O)C#CC[C@H]1CCCC1/C=C/C(O)=C1/C(=O)NC(CCCNC(=O)OC(C)(C)C)C1=O (some centres undefined)
53.8 µM: LXFL 529 NSCLC
34.4 µM: SK-MEL-2 melanoma
53.2 µM: KM20L2 colon
61.3 µM: DMS 114 small cell lung
44.9 µM: RXF-631 renal
67.9 µM: M19-MEL melanoma
36.1 µM: SK-MEL-28 melanoma
75.3 µM: SF-268 CNS
89.3 µM: K-562 leukemia
23.9 µM: HCT-116 colon
73.7 µM: HL-60(TB) leukemia
31.6 µM: OVCAR-8 ovarian
65.9 µM: DMS 273 small cell lung
33.6 µM: COLO 205 colon
74.8 µM: U251 CNS
61.6 µM: NCI-H460 lung
83.1 µM: SF-539 CNS
59 µM: HOP-92 NSCLC
84.5 µM: RPMI-8226 leukemia | TK-10 renal
57.6 µM: MALME-3M melanoma
34.9 µM: UACC-62 melanoma
61.4 µM: UACC-257 melanoma
88.5 µM: CCRF-CEM leukemia | SNB-19 CNS
30 µM: RXF 393 renal
40.7 µM: NCI-H522 lung
75.9 µM: MOLT-4 leukemia
94.1 µM: OVCAR-4 ovarian
78.3 µM: NCI-H23 lung
40.2 µM: LOX IMVI melanoma
not listed: HCT-15 colon | XF 498 CNS | SNB-78 CNS
> 100 µM: all other assays above

Source: PubChem BioAssay (NCI)
